Assay type in all cases: cell-based
Test [1] has as its target T1, CFTR ΔF508 mutant (Homo sapiens, UniProt P13569, DEL508-508).
T1 construct: expressed in transfected cells; host or cells: CFBE41o- (adenoviral transduction)
Kind of test: YFP-halide influx assay for the CFTR-ΔF508 mutation (96 well, CFBE41o- cells). To be noted: read-out: EC50 measured by YFP-halide influx assay for the CFTR-ΔF508. From the text: 6.1. YFP-Halide Influx Assay for the CFTR-ΔF508 Mutation
The YFP halide influx assay measures the functionality of the cystic fibrosis Transmembrane Conductance regulator (CFTR) channels in the cystic fibrosis bronchial epithelium cell line CFBE41o-. The assay is used to evaluate the capacity of compounds to increase the open probability of existing CFTR channels in the membrane. It makes use of the observation that the yellow fluorescent protein (YFP) variant YFP H148Q, I152L has its fluorescence substantially quenched by halide ions like Cl^− and I^−. (Galietta et al., 2001; Nagai et al., 2002)
For this purpose, CFBE410-cells are seeded in 96 well plates (6000 CFBE cells/well). One day after seeding, the CFBE cells are transduced with adenoviral vectors that direct the expression of the CFTR ΔF508 mutant and of the YFP reporter. Cells are incubated at 27° C., 5% CO2 for 24 hours so as to allow for the proper folding and migration to the membrane of the CFTR channel or treated with a CFTR modulator during 24 h at 37° C.
The […] quenching of fluorescence is recorded immediately after injection of I^− for 7 seconds. The capacity of a compound to increase the channel opening is directly correlated with the decrease in fluorescence, and is expressed as (1-(fluorescence after 7 seconds (F)/fluorescence before injection (F0))) and an EC50 can be derived from a (1−F/F0) vs compound concentration plot.

Test [2] has as its target T1, CFTR ΔF508 mutant. Kind of test: YFP-halide influx assay for the CFTR-ΔF508 mutation (384 well, CFBE41o- cells, FDSS/μCell). To be noted: forskolin 10.67 μM, fluorescence after 36 seconds, read-out: EC50 measured by YFP-halide influx assay for the CFTR-ΔF508. In outline:
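CFBE41o- cells were adenovirally transduced with ΔF508 CFTR and the YFP H148Q/I152L reporter. Cells were then held 24 h at 27 °C or treated 24 h at 37 °C with a CFTR modulator. Iodide-induced quench was recorded for 2 min, and EC50 was derived from 1−F/F0 at 36 s against compound concentration.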

Another test concerns the target T2, CFTR G551D mutant (Homo sapiens, UniProt P13569, G551D).
T2 construct: expressed in transfected cells; host or cells: HEK293 (reverse transfection with plasmids)
Kind of test: YFP-halide influx assay for the CFTR-G551D mutation (HEK293 cells). To be noted: read-out: EC50 measured by YFP-halide influx assay for the CFTR-G551D. An excerpt: 6.3. YFP-Halide Influx Assay for the CFTR-G551D Mutation
The YFP halide influx assay measures the functionality of the cystic fibrosis Transmembrane Conductance regulator (CFTR) channels. The assay is used to evaluate the capacity of compounds to increase the channel opening of existing mutant CFTR channels in the membrane. It makes use of the observation that the yellow fluorescent protein (YFP) variant YFP H148Q, I152L, F47L has its fluorescence substantially quenched by halide ions like Cl^− and I^−. (Galietta et al., 2001)
For this purpose, HEK293-cells are seeded in 96 well plates. During seeding, the cells are reverse-transfected with plasmid vectors that direct the expression of the CFTR G551D mutant and of the YFP reporter. Cells are incubated at 37° C., 5% CO2 for 24 hours so as to allow for sufficient expression of the CFTR protein.
The I^−-induced quenching of fluorescence is recorded immediately after injection of I^− for 7 seconds. The capacity of a compound to increase the channel opening is directly correlated with the decrease in fluorescence, and is expressed as (1−(fluorescence after 7 seconds (F)/fluorescence before injection (F0))) and an EC50 can be derived from a (1−F/F0) vs compound concentration plot.

Where [3] appears, read: compounds of the invention, 96 well, forskolin 10.67 μM.
[4] abbreviates: HEK293 cells expressing CFTR G551D and YFP reporter, forskolin 10.67 μM.

By EC50 is commonly meant the concentration giving half of the maximal effect.

Read-outs that look alike come from different tables or passages of the source.

T2 sequence (P13569 whole entry G551D): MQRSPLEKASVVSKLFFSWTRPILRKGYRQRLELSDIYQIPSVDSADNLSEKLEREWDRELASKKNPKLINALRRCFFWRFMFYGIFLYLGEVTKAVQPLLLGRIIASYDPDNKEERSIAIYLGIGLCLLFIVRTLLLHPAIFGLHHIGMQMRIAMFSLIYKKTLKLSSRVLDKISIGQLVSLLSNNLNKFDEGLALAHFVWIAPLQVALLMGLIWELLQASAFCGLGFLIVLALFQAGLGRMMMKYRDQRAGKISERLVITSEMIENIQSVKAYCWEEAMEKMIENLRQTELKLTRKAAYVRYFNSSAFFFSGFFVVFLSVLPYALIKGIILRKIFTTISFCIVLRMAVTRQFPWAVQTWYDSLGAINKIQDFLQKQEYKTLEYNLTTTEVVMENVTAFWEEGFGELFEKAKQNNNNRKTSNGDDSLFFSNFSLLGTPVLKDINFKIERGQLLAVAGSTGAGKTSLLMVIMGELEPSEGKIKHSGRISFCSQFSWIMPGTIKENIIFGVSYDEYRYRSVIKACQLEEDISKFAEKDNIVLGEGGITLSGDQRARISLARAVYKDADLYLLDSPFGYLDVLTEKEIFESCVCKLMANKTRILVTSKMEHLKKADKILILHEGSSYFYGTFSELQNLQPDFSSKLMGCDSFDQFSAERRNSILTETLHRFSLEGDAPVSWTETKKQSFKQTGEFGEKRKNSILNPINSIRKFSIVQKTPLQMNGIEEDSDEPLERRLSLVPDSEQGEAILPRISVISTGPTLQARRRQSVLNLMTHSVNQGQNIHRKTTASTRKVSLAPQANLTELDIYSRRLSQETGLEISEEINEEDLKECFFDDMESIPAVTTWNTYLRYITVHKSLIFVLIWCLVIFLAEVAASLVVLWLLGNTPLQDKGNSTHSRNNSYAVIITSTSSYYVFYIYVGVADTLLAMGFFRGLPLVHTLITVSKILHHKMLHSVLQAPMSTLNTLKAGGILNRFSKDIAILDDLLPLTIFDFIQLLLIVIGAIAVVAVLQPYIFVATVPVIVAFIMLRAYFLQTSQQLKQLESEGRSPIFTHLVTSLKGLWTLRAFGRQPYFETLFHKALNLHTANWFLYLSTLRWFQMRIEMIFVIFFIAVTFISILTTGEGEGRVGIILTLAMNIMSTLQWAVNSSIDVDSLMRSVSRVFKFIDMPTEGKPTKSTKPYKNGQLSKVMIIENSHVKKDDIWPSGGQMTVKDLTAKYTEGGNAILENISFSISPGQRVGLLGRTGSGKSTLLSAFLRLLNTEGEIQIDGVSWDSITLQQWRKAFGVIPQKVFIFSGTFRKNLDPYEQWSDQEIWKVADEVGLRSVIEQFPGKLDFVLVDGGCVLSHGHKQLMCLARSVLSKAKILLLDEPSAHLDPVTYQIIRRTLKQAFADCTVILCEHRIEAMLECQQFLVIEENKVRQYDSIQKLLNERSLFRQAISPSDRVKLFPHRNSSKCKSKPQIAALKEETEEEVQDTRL
T1 sequence (P13569 with tags, fused parts or gaps DEL508-508): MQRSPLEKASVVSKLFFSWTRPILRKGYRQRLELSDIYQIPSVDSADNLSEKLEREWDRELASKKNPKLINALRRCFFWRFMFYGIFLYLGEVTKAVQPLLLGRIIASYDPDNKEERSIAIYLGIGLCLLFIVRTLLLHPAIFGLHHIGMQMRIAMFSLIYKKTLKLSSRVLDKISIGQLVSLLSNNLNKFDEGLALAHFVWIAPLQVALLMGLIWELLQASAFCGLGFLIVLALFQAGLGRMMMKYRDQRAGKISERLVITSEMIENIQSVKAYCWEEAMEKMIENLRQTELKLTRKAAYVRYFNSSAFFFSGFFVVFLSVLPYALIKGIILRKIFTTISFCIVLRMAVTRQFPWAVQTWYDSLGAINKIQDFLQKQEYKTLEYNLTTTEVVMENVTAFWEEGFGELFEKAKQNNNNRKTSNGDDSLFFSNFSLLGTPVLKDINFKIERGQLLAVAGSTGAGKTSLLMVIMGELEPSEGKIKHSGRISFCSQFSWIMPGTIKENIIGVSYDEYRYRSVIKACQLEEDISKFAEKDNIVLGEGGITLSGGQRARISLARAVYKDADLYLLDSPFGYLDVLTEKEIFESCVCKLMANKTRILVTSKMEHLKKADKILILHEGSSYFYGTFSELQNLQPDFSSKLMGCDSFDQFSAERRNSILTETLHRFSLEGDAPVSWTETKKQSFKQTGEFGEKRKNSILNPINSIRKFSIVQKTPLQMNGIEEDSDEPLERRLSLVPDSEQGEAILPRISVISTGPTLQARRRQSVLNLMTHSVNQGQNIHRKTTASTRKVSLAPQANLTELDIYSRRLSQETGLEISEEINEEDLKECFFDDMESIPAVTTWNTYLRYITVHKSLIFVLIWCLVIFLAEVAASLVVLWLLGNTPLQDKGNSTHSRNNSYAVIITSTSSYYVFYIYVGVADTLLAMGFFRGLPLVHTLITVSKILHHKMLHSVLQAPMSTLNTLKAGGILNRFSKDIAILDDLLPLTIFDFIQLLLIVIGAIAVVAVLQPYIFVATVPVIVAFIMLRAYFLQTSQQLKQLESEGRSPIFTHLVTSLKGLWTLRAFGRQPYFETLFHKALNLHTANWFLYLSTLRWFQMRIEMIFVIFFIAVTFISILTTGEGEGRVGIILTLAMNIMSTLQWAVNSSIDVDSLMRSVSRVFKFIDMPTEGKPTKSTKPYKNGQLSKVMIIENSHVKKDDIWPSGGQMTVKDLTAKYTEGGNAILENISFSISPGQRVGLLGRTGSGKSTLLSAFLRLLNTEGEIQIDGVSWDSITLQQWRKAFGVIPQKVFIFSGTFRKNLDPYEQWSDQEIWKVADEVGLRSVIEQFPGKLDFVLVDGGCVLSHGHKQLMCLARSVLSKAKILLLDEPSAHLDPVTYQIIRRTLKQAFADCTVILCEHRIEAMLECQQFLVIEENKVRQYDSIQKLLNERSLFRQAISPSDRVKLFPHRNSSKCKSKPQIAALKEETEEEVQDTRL

Consider `CN1CCc2[nH]nc(C(=O)Nc3sc4c(c3C(N)=O)CC(C)(C)OC4(C)C)c2C1` [Compound 31, N-(3-carbamoyl-5,5,7,7-tetramethyl-5,7-dihydro-4H-thieno[2,3-c]pyran-2-yl)-5-methyl-4,5,6,7-tetrahydro-1H-pyrazolo[4,3-c]pyridine-3-carboxamide], for which the concentration giving a half-maximal response (EC50) on CFTR ΔF508 mutant [1] (setting [3]) and on CFTR ΔF508 mutant [2] was 354 nM throughout.

For the compound `CC1(C)Cc2c(sc(NC(=O)C3CCNC3=O)c2C(N)=O)C(C)(C)O1` (stereo not drawn) [Compound 30, N-(3-carbamoyl-5,5,7,7-tetramethyl-5,7-dihydro-4H-thieno[2,3-c]pyran-2-yl)-2-oxopyrrolidine-3-carboxamide], the values for the EC50 on CFTR ΔF508 mutant [1] (setting [3]), on CFTR ΔF508 mutant [2] and on CFTR G551D mutant (setting [4]) were 141 nM, 101 nM and 6660 nM, respectively.

In the case of `CC(O)C(=O)Nc1sc2c(c1C(N)=O)CC(C)(C)OC2(C)C` (stereo not drawn) [Compound 22, 2-(2-hydroxypropanamido)-5,5,7,7-tetramethyl-5,7-dihydro-4H-thieno[2,3-c]pyran-3-carboxamide], the values for the EC50 at CFTR ΔF508 mutant [1] (setting [3]) and at CFTR ΔF508 mutant [2] were 219 nM and 83 nM, respectively.

Regarding `NC(=O)c1c(NC(=O)c2ccccc2O)sc2c1CCNC2` [C, 2-(2-hydroxybenzamido)-4,5,6,7-tetrahydrothieno[2,3-c]pyridine-3-carboxamide, reference compound], the concentration giving a half-maximal response (EC50) on CFTR ΔF508 mutant [1] (comparative compounds) was greater than 10000 nM.

As to `NC(=O)c1c(NC(=O)c2ccccc2O)sc2c1CCOC2` [D, 2-(2-hydroxybenzamido)-5,7-dihydro-4H-thieno[2,3-c]pyran-3-carboxamide, reference compound], the half-maximal effective concentration (EC50) at CFTR ΔF508 mutant [1] (comparative compounds) was 156 nM; at CFTR G551D mutant (comparative compounds, HEK293 cells), greater than 10000 nM.

`CC1(C)Cc2c(sc(NC(=O)c3ccccc3-c3ncn[nH]3)c2C(N)=O)C(C)(C)O1` [Compound 26, 2-(2-(1H-1,2,4-triazol-5-yl)benzamido)-5,5,7,7-tetramethyl-5,7-dihydro-4H-thieno[2,3-c]pyran-3-carboxamide]: at CFTR ΔF508 mutant [1] (setting [3]), the half-maximal effective concentration (EC50) was determined as 1270 nM.

Regarding `CC1(C)Cc2c(sc(NC(=O)c3n[nH]cc3C3COCCO3)c2C(N)=O)C(C)(C)O1` (single isomer, unassigned) [Compound 112, N-(3-carbamoyl-5,5,7,7-tetramethyl-4H-thieno[2,3-c]pyran-2-yl)-4-[1,4-dioxan-2-yl]-1H-pyrazole-3-carboxamide], the EC50 was 34.4 nM at CFTR ΔF508 mutant [2] and 1830 nM at CFTR G551D mutant (setting [4]).

In the case of `Cc1ncoc1C(=O)Nc1sc2c(c1C(N)=O)CC(C)(C)OC2(C)C` [Compound 135, N-(3-carbamoyl-5,5,7,7-tetramethyl-4H-thieno[2,3-c]pyran-2-yl)-4-methyl-oxazole-5-carboxamide], the EC50 is 138 nM on CFTR ΔF508 mutant [2] and 2030 nM at CFTR G551D mutant (setting [4]).

On to `CC1(C)Cc2c(sc(NC(=O)C3(C)CC(F)(F)C3)c2C(N)=O)C(C)(C)O1` [Compound 124, 2-[(3,3-difluoro-1-methyl-cyclobutanecarbonyl)amino]-5,5,7,7-tetramethyl-4H-thieno[2,3-c]pyran-3-carboxamide], for which the figures for the concentration for a half-maximal effect (EC50) at CFTR ΔF508 mutant [2] and on CFTR G551D mutant (setting [4]) were 40.6 nM and 685 nM, respectively.

In the case of `CC1(C)Cc2c(sc(NC(=O)c3n[nH]cc3C#N)c2C(N)=O)C(C)(C)O1` [Compound 73, N-(3-carbamoyl-5,5,7,7-tetramethyl-4H-thieno[2,3-c]pyran-2-yl)-4-cyano-1H-pyrazole-3-carboxamide], the EC50 on CFTR ΔF508 mutant [2] worked out at 20.8 nM; on CFTR G551D mutant (setting [4]), 570 nM.

Take `CC1(C)Cc2c(sc(NC(=O)c3cscn3)c2C(N)=O)C(C)(C)O1` [Compound 128, N-(3-carbamoyl-5,5,7,7-tetramethyl-4H-thieno[2,3-c]pyran-2-yl)thiazole-4-carboxamide]: the EC50 on CFTR ΔF508 mutant [2] is 34.2 nM; at CFTR G551D mutant (setting [4]), 878 nM.

On to `CC1(C)Cc2c(sc(NC(=O)C3CNC(=O)C3)c2C(N)=O)C(C)(C)O1` (stereo not drawn) [Compound 29, N-(3-carbamoyl-5,5,7,7-tetramethyl-5,7-dihydro-4H-thieno[2,3-c]pyran-2-yl)-5-oxopyrrolidine-3-carboxamide], for which, at CFTR ΔF508 mutant [1] (setting [3]), the EC50 was 10000 nM.

With `COCCOc1c[nH]nc1C(=O)Nc1sc2c(c1C(N)=O)CC(C)(C)OC2(C)C` [Compound 100, N-(3-carbamoyl-5,5,7,7-tetramethyl-4H-thieno[2,3-c]pyran-2-yl)-4-(2-methoxyethoxy)-1H-pyrazole-3-carboxamide], the results for the concentration giving a half-maximal response (EC50) on CFTR ΔF508 mutant [2] and at CFTR G551D mutant (setting [4]) were 190 nM and 2860 nM, respectively.

For `CC1(C)Cc2c(sc(NC(=O)c3ccccc3OC(F)F)c2C(N)=O)C(C)(C)O1` [Compound 113, 2-[[2-(difluoromethoxy)benzoyl]amino]-5,5,7,7-tetramethyl-4H-thieno[2,3-c]pyran-3-carboxamide], the EC50 on CFTR ΔF508 mutant [2] amounted to 77.5 nM; at CFTR G551D mutant (setting [4]) it was 2790 nM.

`CC1(C)Cc2c(sc(NC(=O)C(C)(O)C(C)(C)C)c2C(N)=O)C(C)(C)O1` (stereo not drawn) [Compound 81, 2-[(2-hydroxy-2,3,3-trimethyl-butanoyl)amino]-5,5,7,7-tetramethyl-4H-thieno[2,3-c]pyran-3-carboxamide]: the half-maximal effective concentration (EC50) at CFTR ΔF508 mutant [2] turned out to be 3.23 nM; on CFTR G551D mutant (setting [4]), 6660 nM.

Take `Cn1cc(C(=O)Nc2sc3c(c2C(N)=O)CC(C)(C)OC3(C)C)c(C(F)F)n1` [Compound 117, N-(3-carbamoyl-5,5,7,7-tetramethyl-4H-thieno[2,3-c]pyran-2-yl)-3-(difluoromethyl)-1-methyl-pyrazole-4-carboxamide]: the results for the concentration for a half-maximal effect (EC50) at CFTR ΔF508 mutant [2] and at CFTR G551D mutant (setting [4]) were 239 nM and 6660 nM, respectively.

For `CC1(C)Cc2c(sc(NC(=O)c3cccc(F)n3)c2C(N)=O)C(C)(C)O1` [Compound 24, N-(3-carbamoyl-5,5,7,7-tetramethyl-5,7-dihydro-4H-thieno[2,3-c]pyran-2-yl)-6-fluoropicolinamide], the EC50 was determined as 314 nM at CFTR ΔF508 mutant [1] (setting [3]) and 234 nM at CFTR ΔF508 mutant [2].

Regarding `CC(O)C1(C(=O)Nc2sc3c(c2C(N)=O)CC(C)(C)OC3(C)C)CC1` (stereo not drawn) [Compound 79, 2-[[1-[1-hydroxyethyl]cyclopropanecarbonyl]amino]-5,5,7,7-tetramethyl-4H-thieno[2,3-c]pyran-3-carboxamide], the EC50 at CFTR ΔF508 mutant [2] came out at 23.6 nM; at CFTR G551D mutant (setting [4]) it was 3330 nM.

Consider `CC1(C)Cc2c(sc(NC(=O)C(CO)CC3CC3)c2C(N)=O)C(C)(C)O1` (single isomer, unassigned) [Compound 96, 2-[[2-(cyclopropylmethyl)-3-hydroxy-propanoyl]amino]-5,5,7,7-tetramethyl-4H-thieno[2,3-c]pyran-3-carboxamide], for which the results for the EC50 on CFTR ΔF508 mutant [2] and at CFTR G551D mutant (setting [4]) were 97.4 nM and 3330 nM, respectively.

For the compound `Cn1ccc(C(=O)Nc2sc3c(c2C(N)=O)CC(C)(C)OC3(C)C)n1` [Compound 119, N-(3-carbamoyl-5,5,7,7-tetramethyl-4H-thieno[2,3-c]pyran-2-yl)-1-methyl-pyrazole-3-carboxamide], the results for the 50% effective concentration (EC50) on CFTR ΔF508 mutant [2] and at CFTR G551D mutant (setting [4]) were 159 nM and 2170 nM, respectively.

For the compound `CC(=O)OC1(C(=O)Nc2sc3c(c2C(N)=O)CC(C)(C)OC3(C)C)CCOCC1` [Compound 41, 4-(3-carbamoyl-5,5,7,7-tetramethyl-5,7-dihydro-4H-thieno[2,3-c]pyran-2-ylcarbamoyl)tetrahydro-2H-pyran-4-yl acetate], the half-maximal effective concentration (EC50) on CFTR ΔF508 mutant [1] (setting [3]) turned out to be 1740 nM; on CFTR ΔF508 mutant [2] it was 602 nM.

On to `CC1(C)Cc2c(sc(NC(=O)c3ccno3)c2C(N)=O)C(C)(C)O1` [Compound 133, N-(3-carbamoyl-5,5,7,7-tetramethyl-4H-thieno[2,3-c]pyran-2-yl)isoxazole-5-carboxamide], for which the figures for the concentration giving a half-maximal response (EC50) at CFTR ΔF508 mutant [2] and on CFTR G551D mutant (setting [4]) were 552 nM and 3330 nM, respectively.

The record behind these values is patent US9351955B2, “Compounds and pharmaceutical compositions thereof for the treatment of cystic fibrosis” (Galapagos NV, priority 2013, dated 2016).
